Test: in vitro
Conditions: human, hela cells, % viability

In order of falling viability at 28.5 h, 10 µM:
1. O=C(CNC(=O)OCc1ccccc1)NCC(CCCN1CCN(c2ccccc2)CC1)(c1ccccc1)c1ccccc1 [CBK002293]  125%
2. CN1CCc2c(sc3nc(SCc4cccc5ccccc45)n(-c4ccccc4)c(=O)c23)C1 [CBK264556]  124%
3. COCCCn1c(CCC(=O)O)ccc1-c1cccs1 [CBK267942]  121%
4. COc1cccc(N2CCN(C(C(=O)O)c3cn(C)c4cc(C(=O)O)ccc34)CC2)c1 (stereo not drawn) [CBK286701]  114%
5. COc1cc(NC(=O)CN2CCc3c(c(CO)nn3C)C2)cc(OC)c1 [CBK306841]  114%
6. CN1CCC(N2CC[C@@H]3[C@H]2C(=O)NC[C@H](CCC(=O)NCc2ccccc2)N3C)CC1 [CBK289026]  114%
7. O=C(Nc1nnc[nH]1)c1cccnc1Cl [CBK026067]  113%
8. COc1cc(C(=O)N2CCN(C(=O)c3ccco3)CC2)cc(OC)c1OC [CBK144476]  113%
9. CCc1nnc(NS(=O)(=O)c2ccc(NCc3cc(Cl)cc(Cl)c3O)cc2)s1 [CBK126494]  112%
10. CCOc1cc(OCC)cc(C(=O)N2CCC3(CC2)CC(=O)c2ccc(OCC)c(C)c2O3)c1 [CBK168015]  112%
11. O=C(Cc1nc(-c2ccncc2)n[nH]1)NC1CCCCC1 [CBK288544]  110%
12. CC(=O)Nc1ccc(C(=O)N2CCCC(c3cccc(Cc4ccccc4Cl)n3)C2)cc1 (stereo not drawn) [CBK286126]  109%
13. COc1cc(C(=O)N2CCC3(CC2)CC(=O)c2cc(-c4ccc(N(C)C)cc4)ccc2O3)cc(OC)c1C [CBK170663]  108%
14. COCCNC(=O)C1CCCCC1C(=O)O (stereo not drawn) [CBK269135]  108%
15. COc1ncccc1NC(=O)CSCC#N [CBK306314]  108%
16. O=C1NC(=O)C(c2ccccc2)(c2ccccc2)N1 [CBK005292]  108%
17. O=C(Nc1ccc2n(c1=O)C[C@@H]1CNC[C@H]2C1)c1ccncc1 [CBK289177]  107%
18. O=c1c2cc(F)ccc2nc2n1CCN(Cc1ccsc1)CC2 [CBK284860]  106%
19. O=C1Nc2ccc(-c3cccc(C(F)(F)F)c3)cc2C(=O)N2C[C@H](O)C[C@@H]12 [CBK289273]  106%
20. CNC(=O)C1(Cc2ccccc2-c2cccs2)CCN(C(=O)Cc2cccc(C)c2)CC1 [CBK285686]  105%
21. O=P(O)(CCc1ccccc1)CN1CCOCC1 [CBK262305]  104%
22. CC(=O)N1CCc2cc(-c3cc4ccccn4c3)ccc21 [CBK285224]  104%
23. COc1ccc(-c2csc(NS(=O)(=O)c3c(C)cc(Cl)cc3Cl)n2)cc1 [CBK000814]  104%
24. O=C1NCC2(CCN(C(=O)c3ccco3)CC2)Oc2ccccc21 [CBK282919]  103%
25. CC(CC(=O)O)CC(=O)Nc1ccc(C(=O)O)cc1 (stereo not drawn) [CBK265560]  103%
26. CCc1cccc(CC)c1NC(=O)CN(c1cccc(Cl)c1Cl)S(C)(=O)=O [CBK265934]  103%
27. O=C(Nc1nnc(-c2ccccc2)o1)C1COc2ccccc2O1 (stereo not drawn) [CBK287596]  103%
28. CC[C@H](Cn1nc(-c2cccs2)ccc1=O)NC(=O)C1CCC1 [CBK284295]  103%
29. CCCc1c(C(=O)N2CCN(C)CC2)cnn1-c1cc(Cl)cc(Cl)c1 [CBK107375]  103%
30. c1ccc(-c2ccccc2CN2CCC(Oc3nccnc3OCCN3CCOCC3)CC2)cc1 [CBK082924T]  102%
31. O=C(O)CCCC(=O)Nc1ccccc1Br [CBK261322]  102%
32. Cc1cc(N2CCCN3CCCCCC32)nc(N)n1 (stereo not drawn) [CBK169746]  102%
33. O=C(Cc1c(O)c2ccccc2[nH]c1=O)NCc1ccc(Cl)cc1 [CBK160317]  101%
34. c1ccc(NCCOc2cncc(N3CCCC3)n2)cc1 [CBK115670]  101%
35. CN1CCN(C(=O)c2n[nH]c3c2CCCC3)C(Cc2ccc(-c3cccs3)cc2)C1=O (stereo not drawn) [CBK285812]  101%
36. Cc1ccc(OCC(=O)Nc2ccc3c(c2)oc2ccccc23)cc1[N+](=O)[O-] [CBK266036]  100%
37. O=C1CC(c2ccco2)CC(=O)C1=CNCCN1CCNCC1 (stereo not drawn) [CBK263668]  99.7%
38. O=S(=O)(c1ccc(-c2ccccc2)cc1)N1CCCN(Cc2cccnc2N2CCOCC2)CC1 [CBK063127]  99.5%
39. CSCCC(C(=O)O)N1C(=O)C(=Cc2ccc(-c3cccc(Cl)c3)o2)SC1=S (stereo not drawn) [CBK296982]  99.3%
40. Cn1ncc2c(=O)n(Cc3noc(-c4ccsc4)n3)cnc21 [CBK305056]  99%
41. Cc1[nH]c2ccccc2c1C(=O)CSc1n[nH]c(N)n1 [CBK268056]  98.3%
42. Cc1nc2c(C)cccc2c(O)c1CN1CCCCCC1 [CBK264512]  98.1%
43. CC1CCCN(Cc2c(C3CCOCC3)[nH]c3ncccc23)C1 (stereo not drawn) [CBK284687]  97%
44. NC(CC(=O)O)c1cccc([N+](=O)[O-])c1 (stereo not drawn) [CBK262903C]  96.9%
45. O=C1NC(=O)C(CCCCN2CCCC3(CCN(C(=O)c4ccoc4)C3)C2)N1 (stereo not drawn) [CBK132833]  96.8%
46. O=C(NCCCc1ccccc1)c1cccc(S(=O)(=O)N2CCCC2)c1 [CBK305024]  96.1%
47. CC(C)NC(=O)CN1CCC(N(C)Cc2cccc(C(F)(F)F)c2)CC1 [CBK305429]  95%
48. CCSc1nc(SCC)c2c3c([nH]c2n1)CCCC3 [CBK019936]  94.6%
49. COc1cccc(C(=O)COC(=O)c2cc(-c3ccccc3)nc3ccc(Br)cc23)c1 [CBK265143]  94.4%
50. COC(=O)c1cc(Cl)c(NC(=S)NC(=O)C(C)(C)C)cc1OC [CBK020937]  94.1%
51. O=c1cc(CN2CCc3ccccc3C2)[nH]c(=O)[nH]1 [CBK126401]  94%
52. CN(C)CC1CN(C(=O)Nc2ncc(Cc3ccccc3Cl)s2)CCO1 (stereo not drawn) [CBK304107]  93.6%
53. O=C(NC1CCN(c2nc3cccnc3s2)CC1)c1ccsc1 [CBK304342]  93%
54. CN(Cc1cnn(C)c1)C(=O)c1ccc(Cl)cc1Br [CBK305404]  93%
55. Cc1nn(CC(=O)NC2CC2)c(=O)c2cc3ccsc3n12 [CBK284026]  92.3%
56. CCOC(=O)C1(C2CCCCC2)CCN(C(=O)c2cc[nH]c2)CC1 [CBK137103]  92.1%
57. COc1nccnc1N1CCN(Cc2ccc(Cl)c(Cl)c2)CC1 [CBK084209]  92.1%
58. O=C(NCC1(c2ccccc2F)CCOCC1)[C@@H]1C[C@@H]2C=C[C@H]1C2 [CBK281552]  91.6%
59. COc1ccc(Br)cc1CN1CCN(Cc2cccc([N+](=O)[O-])c2)CC1 [CBK263347]  91.6%
60. COc1ccc(Nc2n[nH]c3nc(C)cc(=O)n23)cc1 [CBK288117]  91.1%
61. O=C(O)C1(Oc2ccc3ncccc3c2)CCN(Cc2ccoc2)CC1 [CBK307598]  90.9%
62. COc1cc(C(=O)O)cc2c1NC(c1ccc(C(=O)O)cc1)C1CC=CC21 (stereo not drawn) [CBK287018]  90.3%
63. O=C(CC1CCN(C(=O)Cc2ccccc2)CC1)Nc1nc2c(s1)CCCCC2 [CBK286001]  90.3%
64. O=c1[nH]c(=O)c2cc(S(=O)(=O)NCC3CCN(Cc4ccccc4)C3)ccc2[nH]1 (stereo not drawn) [CBK286384]  90%
65. CC(=O)Nc1ccc(CN2Cc3nc[nH]c3C[C@H]2c2nc(-c3ccc(F)cc3)no2)cc1 [CBK288956]  89.7%
66. COc1ccc2c(C)c(C(=O)NC(C)Cc3ccccn3)oc2c1 (stereo not drawn) [CBK281424]  89.1%
67. Cc1nonc1CC(=O)N1C2CCC1CC(c1ccc(F)cc1)C2 (stereo not drawn) [CBK283739]  89.1%
68. O=C(c1ccco1)N1CCN(C(=O)C(c2ccccc2)c2ccccc2)CC1 [CBK144462]  88.9%
69. O=C(Cc1ccc(Br)cc1)Nc1cc(C(=O)O)cc(C(=O)O)c1 [CBK268228]  88.8%
70. O=C(c1ccccc1)N1CCCC1c1n[nH]cc1-c1ccncc1 (stereo not drawn) [CBK283433]  88.5%
71. Cc1csc(NC(=O)c2ncoc2-c2cccs2)n1 [CBK283972]  88.2%
72. COc1cccc(CC(=O)Nc2ncccc2OCCCC#N)c1 [CBK304961]  88%
73. CCCCOc1ccc(C(=O)OC(Cc2cccc3ccccc23)CN(CC)CC)cc1 (stereo not drawn) [CBK011965C]  87.7%
74. CCN1CC2(CCN(Cc3ccc4nsnc4c3)CC2)c2ccccc21 [CBK136994]  87.7%
75. CS(=O)(=O)N1CCC(Nc2nc(-c3cccs3)nc3ccccc23)CC1 [CBK305987]  87.3%
76. C=CCn1c(Cc2csc(NC(=O)Cc3cc(OC)c(OC)c(OC)c3)n2)n[nH]c1=S [CBK295311]  87.1%
77. COC(=O)[C@@H]1CN(C(=O)c2cccs2)CCN1C(=O)c1cccnc1 [CBK289610]  87%
78. COc1ccc(OC)c(NC(=O)CSc2ccc(-c3ccncc3)nn2)c1 [CBK287637]  86.6%
79. O=C(C1CCCC1)N1CCC(c2nnc(-c3ccsc3)o2)CC1 [CBK283379]  86.5%
80. O=C(Nc1cccc(OC(=O)c2cccc(S(=O)(=O)N3CCOCC3)c2)c1)c1ccccc1 [CBK261365]  85.5%
81. CN(Cc1ncc[nH]1)C(=O)c1cn(Cc2cccc(C(F)(F)F)c2)nn1 [CBK306768]  84.4%
82. O=C(NC(=S)Nc1ccc2[nH]c(=O)[nH]c2c1)c1ccc(OCc2ccccc2)cc1 [CBK268908]  83.8%
83. CC(=O)Nc1cnn(-c2ccc(C(=O)N3CCCCC3c3nc4ccccc4[nH]3)cc2)c1 (stereo not drawn) [CBK291109]  83.3%
84. O=S(=O)(c1ccc(OC(F)(F)F)cc1)N1CCN(Cc2ccc3c(c2)OCO3)CC1 [CBK200040]  82.5%
85. N#Cc1ccccc1CSCCNC(=O)c1ccc(NC(=O)c2ccco2)s1 [CBK296749]  80.8%

Same assay, conditions: human, hela cells, % viability, bulk resorufin, single well

In order of rising viability at 28.5 h, 10 µM:
1. CC(=O)C1(c2ccccc2)CCN(C(=O)CNS(=O)(=O)c2ccc(C)cc2)CC1 [CBK091328]  92.5%
2. CN1C(=O)C(=Cc2ccc(-c3cccc([N+](=O)[O-])c3)o2)C(=O)N(C)C1=S [CBK263903]  95.1%

— PMC12040169 (PLOS Biology, 2025)
